Test results reported in publication PMC4291083, “Ex Vivo Characterization of a Novel Iodine-123-Labelled Aminomethylchroman as a Potential Agonist Ligand for SPECT Imaging of Dopamine D2/3 Receptors” (International Journal of Molecular Imaging, 2014).
Marks after values point to notes of the source that are not given here.

Experiment: Biodistribution studies in rats
Format: in vivo, Wistar rats
Conditions: male rats
Protocol: [^123I]-1 (SA ≥ 37 MBq/nmol) was received after radiolabelling in an isotonic acetate (9% EtOH) buffer (pH 4.8). The solution was passed through a membrane filter (0.2 μm) and was diluted to the proper concentrations. Male Wistar rats (approximately 250 g body weight, obtained from Harlan/Charles River, Zeist, Netherlands) received an intravenous injection in the tail vein of approximately 3.7 MBq/0.4 mL buffer of [^123I]-1 under O2/CO2 anaesthesia. Distribution to the tissue was measured 15 min, 30 min, and 1, 2, 3, 4, and 24 h after the injection to determine the time course of uptake in several organs, including the brain. Four rats were killed at each time point via bleeding by heart puncture (to minimize contribution of blood activity) under O2/CO2 anaesthesia followed by cervical dislocation. Brain regions (cerebellum, frontal and prefrontal cortex, olfactory bulbs, pituitary, medulla with pons, midbrain, striatum, hypothalamus, hippocampus, and thalamus) and various peripheral tissues (heart, lung, liver, spleen, kidney, muscle, fat, and thymus) were quickly excised and weighted. The activity of [^123I] was assayed in a gamma counter, and data was corrected for decay and the amount of radioactivity was presented as percentage of the injected dose, multiplied by the body weight in kilograms, per gram tissue or blood. Selective uptake in the striatum was determined by calculating the ratio of radioactivity in the striatum in relation to that in the cerebellum, since the density of dopamine D2/3 receptor is negligible in this brain area in rats.

123I radioactivity, Fat (3 h after i.v. injection): 0.337 ± 0.065 %ID × kg/g | 123I radioactivity, Fat (4 h after i.v. injection): 0.174 ± 0.056 %ID × kg/g | 123I radioactivity, Fat (24 h after i.v. injection): 0.016 ± 0.005 %ID × kg/g | 123I radioactivity, Frontal cortex (15 min after i.v. injection): 2.567 ± 1.933 %ID × kg/g | 123I radioactivity, Frontal cortex (30 min after i.v. injection): 2.329 ± 0.904 %ID × kg/g | 123I radioactivity, Frontal cortex (1 h after i.v. injection): 0.722 ± 0.061 %ID × kg/g | 123I radioactivity, Frontal cortex (2 h after i.v. injection): 0.223 ± 0.028 %ID × kg/g | 123I radioactivity, Frontal cortex (3 h after i.v. injection): 0.232 ± 0.095 %ID × kg/g | 123I radioactivity, Frontal cortex (4 h after i.v. injection): 0.109 ± 0.057 %ID × kg/g | 123I radioactivity, Frontal cortex (24 h after i.v. injection): 0.024 ± 0.002 %ID × kg/g | 123I radioactivity, Hippocampus (15 min after i.v. injection): 0.826 ± 0.475 %ID × kg/g | 123I radioactivity, Hippocampus (30 min after i.v. injection): 2.155 ± 0.675 %ID × kg/g | 123I radioactivity, Hippocampus (1 h after i.v. injection): 0.866 ± 0.089 %ID × kg/g | 123I radioactivity, Hippocampus (2 h after i.v. injection): 0.255 ± 0.040 %ID × kg/g | 123I radioactivity, Hippocampus (3 h after i.v. injection): 0.230 ± 0.085 %ID × kg/g | 123I radioactivity, Hippocampus (4 h after i.v. injection): 0.093 ± 0.059 %ID × kg/g | 123I radioactivity, Hippocampus (24 h after i.v. injection): 0.014 ± 0.001 %ID × kg/g | 123I radioactivity, Hypothalamus (15 min after i.v. injection): 1.335 ± 0.766 %ID × kg/g | 123I radioactivity, Hypothalamus (30 min after i.v. injection): 1.699 ± 0.526 %ID × kg/g | 123I radioactivity, Hypothalamus (1 h after i.v. injection): 0.747 ± 0.111 %ID × kg/g | 123I radioactivity, Hypothalamus (2 h after i.v. injection): 0.218 ± 0.036 %ID × kg/g | 123I radioactivity, Hypothalamus (3 h after i.v. injection): 0.233 ± 0.070 %ID × kg/g | 123I radioactivity, Hypothalamus (4 h after i.v. injection): 0.114 ± 0.051 %ID × kg/g | 123I radioactivity, Hypothalamus (24 h after i.v. injection): 0.027 ± 0.005 %ID × kg/g | 123I radioactivity, Kidney (15 min after i.v. injection): 1.618 ± 0.774 %ID × kg/g | 123I radioactivity, Kidney (30 min after i.v. injection): 1.735 ± 0.353 %ID × kg/g | 123I radioactivity, Kidney (1 h after i.v. injection): 1.770 ± 0.302 %ID × kg/g | 123I radioactivity, Kidney (2 h after i.v. injection): 1.081 ± 0.154 %ID × kg/g | 123I radioactivity, Kidney (3 h after i.v. injection): 1.336 ± 0.175 %ID × kg/g | 123I radioactivity, Kidney (4 h after i.v. injection): 1.005 ± 0.397 %ID × kg/g | 123I radioactivity, Kidney (24 h after i.v. injection): 0.150 ± 0.026 %ID × kg/g | 123I radioactivity, Midbrain (15 min after i.v. injection): 3.566 ± 4.660 %ID × kg/g | 123I radioactivity, Midbrain (30 min after i.v. injection): 1.715 ± 0.577 %ID × kg/g | 123I radioactivity, Midbrain (1 h after i.v. injection): 0.754 ± 0.040 %ID × kg/g | 123I radioactivity, Midbrain (2 h after i.v. injection): 0.229 ± 0.046 %ID × kg/g | 123I radioactivity, Midbrain (3 h after i.v. injection): 0.214 ± 0.062 %ID × kg/g | 123I radioactivity, Midbrain (4 h after i.v. injection): 0.098 ± 0.059 %ID × kg/g | 123I radioactivity, Midbrain (24 h after i.v. injection): 0.020 ± 0.003 %ID × kg/g | 123I radioactivity, Muscle (15 min after i.v. injection): 0.412 ± 0.466 %ID × kg/g | 123I radioactivity, Muscle (30 min after i.v. injection): 0.363 ± 0.049 %ID × kg/g | 123I radioactivity, Olfactory b. (15 min after i.v. injection): 0.445 ± 0.439 %ID × kg/g | 123I radioactivity, Olfactory b. (30 min after i.v. injection): 1.325 ± 0.402 %ID × kg/g | 123I radioactivity, Olfactory b. (1 h after i.v. injection): 0.631 ± 0.036 %ID × kg/g | 123I radioactivity, Olfactory b. (2 h after i.v. injection): 0.218 ± 0.025 %ID × kg/g | 123I radioactivity, Olfactory b. (3 h after i.v. injection): 0.234 ± 0.087 %ID × kg/g | 123I radioactivity, Olfactory b. (4 h after i.v. injection): 0.112 ± 0.043 %ID × kg/g | 123I radioactivity, Olfactory b. (24 h after i.v. injection): 0.020 ± 0.001 %ID × kg/g | 123I radioactivity, Pituitary (15 min after i.v. injection, only 1 sample): 1.401^* %ID × kg/g | 123I radioactivity, Pituitary (30 min after i.v. injection): 3.367 ± 1.033 %ID × kg/g | 123I radioactivity, Pituitary (1 h after i.v. injection): 1.561 ± 0.538 %ID × kg/g | 123I radioactivity, Pituitary (2 h after i.v. injection): 0.918 ± 0.632 %ID × kg/g | 123I radioactivity, Pituitary (3 h after i.v. injection): 0.548 ± 0.149 %ID × kg/g | 123I radioactivity, Pituitary (4 h after i.v. injection): 0.307 ± 0.056 %ID × kg/g | 123I radioactivity, Pituitary (24 h after i.v. injection): 0.082 ± 0.006 %ID × kg/g | 123I radioactivity, Pons/medulla (15 min after i.v. injection): 1.188 ± 0.587 %ID × kg/g | 123I radioactivity, Pons/medulla (30 min after i.v. injection): 1.486 ± 0.274 %ID × kg/g | 123I radioactivity, Pons/medulla (1 h after i.v. injection): 0.761 ± 0.040 %ID × kg/g | 123I radioactivity, Pons/medulla (2 h after i.v. injection): 0.237 ± 0.045 %ID × kg/g | 123I radioactivity, Pons/medulla (3 h after i.v. injection): 0.229 ± 0.066 %ID × kg/g | 123I radioactivity, Pons/medulla (4 h after i.v. injection): 0.106 ± 0.057 %ID × kg/g | 123I radioactivity, Pons/medulla (24 h after i.v. injection): 0.017 ± 0.001 %ID × kg/g | 123I radioactivity, Spleen (15 min after i.v. injection): 2.428 ± 1.971 %ID × kg/g | 123I radioactivity, Spleen (30 min after i.v. injection): 1.270 ± 0.282 %ID × kg/g | 123I radioactivity, Spleen (1 h after i.v. injection): 0.749 ± 0.093 %ID × kg/g | 123I radioactivity, Spleen (2 h after i.v. injection): 0.266 ± 0.047 %ID × kg/g | 123I radioactivity, Spleen (3 h after i.v. injection): 0.284 ± 0.092 %ID × kg/g | 123I radioactivity, Spleen (4 h after i.v. injection): 0.166 ± 0.087 %ID × kg/g | 123I radioactivity, Spleen (24 h after i.v. injection): 0.022 ± 0.003 %ID × kg/g | 123I radioactivity, Striatum (15 min after i.v. injection): 1.231 ± 1.299 %ID × kg/g | 123I radioactivity, Striatum (30 min after i.v. injection): 1.947 ± 0.666 %ID × kg/g | 123I radioactivity, Striatum (1 h after i.v. injection): 0.779 ± 0.037 %ID × kg/g | 123I radioactivity, Striatum (2 h after i.v. injection): 0.226 ± 0.034 %ID × kg/g | 123I radioactivity, Striatum (3 h after i.v. injection): 0.232 ± 0.065 %ID × kg/g | 123I radioactivity, Striatum (4 h after i.v. injection): 0.101 ± 0.051 %ID × kg/g | 123I radioactivity, Striatum (24 h after i.v. injection): 0.027 ± 0.010 %ID × kg/g | 123I radioactivity, Thalamus (15 min after i.v. injection): 1.556 ± 1.015 %ID × kg/g | 123I radioactivity, Thalamus (30 min after i.v. injection): 1.978 ± 0.618 %ID × kg/g | 123I radioactivity, Thalamus (1 h after i.v. injection): 0.779 ± 0.049 %ID × kg/g | 123I radioactivity, Thalamus (2 h after i.v. injection): 0.234 ± 0.037 %ID × kg/g | 123I radioactivity, Thalamus (3 h after i.v. injection): 0.279 ± 0.091 %ID × kg/g | 123I radioactivity, Thalamus (4 h after i.v. injection): 0.114 ± 0.047 %ID × kg/g | 123I radioactivity, Thalamus (24 h after i.v. injection): 0.033 ± 0.006 %ID × kg/g
SMILES: Oc1ccc2c(c1)O[C@@H](CNCc1ccc([123I])cc1)CC2 [[^123I]-1]
